Assays:
[1] = tested on: MDA-MB-231; assay: drug sensitivity score (DSS), cytotoxicity CellTox Green; higher = more cytotoxic; extreme values may be limits of the assay; conditions: 72 h
[2] = tested on: MDA-MB-231; assay: drug sensitivity score (DSS), cell viability CellTiter-Glo; higher = more sensitive; extreme values may be limits of the assay; conditions: 72 h
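For drug sensitivity score (DSS), cytotoxicity CellTox Green in this document: DSS summarises each dose–response curve by combining IC50, EC50, maximal inhibition and efficacy across drug concentrations.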

SMILES	drug sensitivity score ([1]; shRNA: shPPFIA1_1) [DSS]	drug sensitivity score ([1]; shRNA: shScramble) [DSS]	drug sensitivity score ([2]; shRNA: shPPFIA1_1) [DSS]	drug sensitivity score ([2]; shRNA: shScramble) [DSS]
CCC/C=C/C=C/C(=O)O[C@H]1/C(=C/C(=O)OC)C[C@H]2C[C@H]([C@@H](C)O)OC(=O)C[C@H](O)C[C@@H]3C[C@H](OC(C)=O)C(C)(C)[C@](O)(C[C@@H]4C/C(=C/C(=O)OC)C[C@H](/C=C/C(C)(C)[C@]1(O)O2)O4)O3 [Bryostatin 1]	0	0	17.2	3.3
Nc1cc(C(F)(F)F)c(-c2cc(N3CCOCC3)nc(N3CCOCC3)n2)cn1 [Buparlisib]	1.4	0	0.9	6.2
CS(=O)(=O)OCCCCOS(C)(=O)=O [Busulfan]	0	0	0	0.2
O=C(O)CCCCC(CCSCc1ccccc1)SCc1ccccc1 (stereo not given) [CPI-613]	0	0	0	0
C#Cc1cccc(Nc2ncnc3cc(OC)c(OCCCCCCC(=O)NO)cc23)c1 [CUDC-101]	10.2	7.4	6.2	9.8
CN(C)c1cc2c(cc1Sc1nc3c(N)nccc3n1CCNCC(C)(C)C)OCO2 [CUDC-305]	3.4	3.4	8.7	13.6
COc1ccc(-c2nc(N3CCOCC3)c3sc(CN(C)c4ncc(C(=O)NO)cn4)cc3n2)cn1 [CUDC-907]	23.5	24.5	24	28
Cc1nc(N)sc1-c1ccnc(Nc2ccc(N3CCOCC3)cc2)n1 [CYC-116]	0	0	0.2	4.8
CO[C@H]1C(=O)[C@]2(C)[C@@H](OC)C[C@H]3OC[C@@]3(OC(C)=O)[C@H]2[C@H](OC(=O)c2ccccc2)[C@]2(O)C[C@H](OC(=O)[C@H](O)[C@@H](NC(=O)OC(C)(C)C)c3ccccc3)C(C)=C1C2(C)C [Cabazitaxel]	0	9.7	16.4	11.5
COc1cc2nccc(Oc3ccc(NC(=O)C4(C(=O)Nc5ccc(F)cc5)CC4)cc3)c2cc1OC [Cabozantinib]	0	0	3.2	1.1
CC[C@@]1(O)C(=O)OCc2c1cc1n(c2=O)Cc2cc3ccccc3nc2-1 [Camptothecin]	2	0.7	0.8	10.4
C=CC(=O)Nc1cc2c(Nc3ccc(F)c(Cl)c3)ncnc2cc1OCCCN1CCOCC1 [Canertinib]	3	7.7	2.8	4.3
CCCCCOC(=O)Nc1nc(=O)n([C@@H]2O[C@H](C)[C@@H](O)[C@H]2O)cc1F [Capecitabine]	0	0	0	0
O=C(O)C1(C(=O)O)CCC1.[NH2-].[NH2-].[Pt+2] [Carboplatin]	0	0	0	0
CC(C)C[C@H](NC(=O)[C@H](CCc1ccccc1)NC(=O)CN1CCOCC1)C(=O)N[C@@H](Cc1ccccc1)C(=O)N[C@@H](CC(C)C)C(=O)[C@@]1(C)CO1 [Carfilzomib]	21.9	22.1	16.5	21.4
O=NN(CCCl)C(=O)NCCCl [Carmustine]	0	0	0	0
COc1cc2c(Oc3ccc4[nH]c(C)cc4c3F)ncnc2cc1OCCCN1CCCC1 [Cediranib]	0	0	7	7.5
Cc1ccc(-c2cc(C(F)(F)F)nn2-c2ccc(S(N)(=O)=O)cc2)cc1 [Celecoxib]	0	0	0	0
CCS(=O)(=O)N1CCN(c2ccc(Nc3ncc(C(N)=O)c(NC4CC4)n3)cc2)CC1 [Cerdulatinib]	0	0	0	2.9
Cc1cc(Nc2ncc(Cl)c(Nc3ccccc3S(=O)(=O)C(C)C)n2)c(OC(C)C)cc1C1CCNCC1 [Ceritinib]	0.9	0	0	1.2
O=C(O)CCCc1ccc(N(CCCl)CCCl)cc1 [Chlorambucil]	0	0	0	0
CCN(CC)CCCC(C)Nc1ccnc2cc(Cl)ccc12 (stereo not given) [Chloroquine]	5.2	7.2	8.7	9.4
CC(C)[C@H]1C(=O)N[C@@H](CCCNC(=N)N)C(=O)NCC(=O)N[C@@H](CC(=O)O)C(=O)N[C@H](Cc2ccccc2)C(=O)N1C [Cilengitide]	0	0	0	0

SMILES	drug sensitivity score ([1]; shRNA: shPPFIA1_1) [DSS]	drug sensitivity score ([1]; shRNA: shScramble) [DSS]	drug sensitivity score ([2]; shRNA: shPPFIA1_1) [DSS]	drug sensitivity score ([2]; shRNA: shScramble) [DSS]
N.N.[Cl][Pt][Cl] [Cisplatin]	4	3.5	2	7.6
Nc1nc(Cl)nc2c1ncn2[C@H]1C[C@H](O)[C@@H](CO)O1 [Cladribine]	0	0	0	3.3
Nc1nc(Cl)nc2c1ncn2[C@@H]1O[C@H](CO)[C@@H](O)[C@@H]1F [Clofarabine]	0	0	0	6.5
CCN(CC)CCOc1ccc(C(=C(Cl)c2ccccc2)c2ccccc2)cc1 [Clomifene]	7.9	6.1	3.7	5.1
O=C(c1ccc(F)c(F)c1Nc1ccc(I)cc1F)N1CC(O)([C@@H]2CCCCN2)C1 [Cobimetinib]	4.4	12	1.6	12.8
COc1c(OCCCN2CCOCC2)ccc2c1N=C(NC(=O)c1cnc(N)nc1)N1CCN=C21 [Copanlisib]	10.2	0	0	6.3
CC1(COc2ccc3c(c2)ncn3-c2ccc3cccc(N4CCC(N)CC4)c3n2)COC1 [Crenolanib]	7.2	4.6	5.3	9.4
C[C@@H](Oc1cc(-c2cnn(C3CCNCC3)c2)cnc1N)c1c(Cl)ccc(F)c1Cl [Crizotinib]	0	0	0.1	0
O=P1(N(CCCl)CCCl)NCCCO1 (stereo not given) [Cyclophosphamide]	0	0	0	0
Nc1ccn([C@@H]2O[C@H](CO)[C@@H](O)[C@@H]2O)c(=O)n1 [Cytarabine]	0	0	0	1.6
CC(C)(C)c1nc(-c2cccc(NS(=O)(=O)c3c(F)cccc3F)c2F)c(-c2ccnc(N)n2)s1 [Dabrafenib]	0.9	0.9	0	0
CN(C)/N=N/c1[nH]cnc1C(N)=O [Dacarbazine]	0	0	0	0
COc1cc2ncnc(Nc3ccc(F)c(Cl)c3)c2cc1NC(=O)/C=C/CN1CCCCC1 [Dacomitinib]	0	4.7	0.9	0
Cc1c2oc3c(C)ccc(C(=O)N[C@@H]4C(=O)N[C@H](C(C)C)C(=O)N5CCC[C@H]5C(=O)N(C)CC(=O)N(C)[C@@H](C(C)C)C(=O)O[C@@H]4C)c3nc-2c(C(=O)N[C@@H]2C(=O)N[C@H](C(C)C)C(=O)N3CCC[C@H]3C(=O)N(C)CC(=O)N(C)[C@@H](C(C)C)C(=O)O[C@@H]2C)c(N)c1=O [Dactinomycin]	14.9	12.4	14.1	25.9
CO[C@@H](C(=O)N1Cc2[nH]nc(NC(=O)c3ccc(N4CCN(C)CC4)cc3)c2C1)c1ccccc1 [Danusertib]	0	0.2	0	0
O=C(/C=C/c1cccnc1)NCCCCC1CCN(C(=O)c2ccccc2)CC1 [Daporinad]	0	0	24.6	26.8
CCN(CC)CCN(Cc1ccc(-c2ccc(C(F)(F)F)cc2)cc1)C(=O)Cn1c(SCc2ccc(F)cc2)nc(=O)c2c1CCC2 [Darapladib]	13.1	0	0	0
Cc1nc(Nc2ncc(C(=O)Nc3c(C)cccc3Cl)s2)cc(N2CCN(CCO)CC2)n1 [Dasatinib]	0	0	0	9.3
COc1cccc2c1C(=O)c1c(O)c3c(c(O)c1C2=O)C[C@@](O)(C(C)=O)C[C@@H]3O[C@H]1C[C@H](N)[C@H](O)[C@H](C)O1 [Daunorubicin]	0	0	2.8	7.5
Nc1ncn([C@H]2C[C@H](O)[C@@H](CO)O2)c(=O)n1 [Decitabine]	0	0	0.9	1
CC(=O)N(O)CCCCCNC(=O)CCC(=O)N(O)CCCCCNC(=O)CCC(=O)N(O)CCCCCN [Deferoxamine]	0	0	2.5	2.7
C[C@@H]1C[C@H]2[C@@H]3CCC4=CC(=O)C=C[C@]4(C)[C@@]3(F)[C@@H](O)C[C@]2(C)[C@@]1(O)C(=O)CO [Dexamethasone]	0	0	0	0

Source: the supplement of paper PMC10920090
